Laboratory results published in article PMC3252702 (ChemMedChem, 2010).

Assays:
EtCRK2 = EtCRK2 (Eimeria tenella, UniProt Q6R8F0); experiment: TR-FRET; assay type: biochemical
HsCDK2 = HsCDK2 (Homo sapiens, UniProt P24941); experiment: biochemical
[1] = test system: E. tenella schizont development; experiment: Schizont maturation assay; assay type: cell-based, Eimeria tenella; conditions: n=2

Chain of EtCRK2 (Q6R8F0 1-296): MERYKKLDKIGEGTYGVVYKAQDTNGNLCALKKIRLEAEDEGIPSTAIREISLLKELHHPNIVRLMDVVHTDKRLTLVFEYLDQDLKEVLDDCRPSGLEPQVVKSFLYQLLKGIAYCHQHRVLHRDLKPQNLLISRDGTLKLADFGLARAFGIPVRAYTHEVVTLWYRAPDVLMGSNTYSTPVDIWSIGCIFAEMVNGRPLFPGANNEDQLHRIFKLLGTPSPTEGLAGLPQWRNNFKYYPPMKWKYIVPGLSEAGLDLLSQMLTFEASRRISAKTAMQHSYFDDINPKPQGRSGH

Row | SMILES | IC50 (EtCRK2) [µM] | Ki (EtCRK2) [µM] | IC50 (HsCDK2) [µM] | Ki (HsCDK2) [µM] | inhibition of E. tenella schizont development ([1]; 150 nM) | inhibition of E. tenella schizont development ([1]; 300 nM) | inhibition of E. tenella schizont development ([1]; concentrations below 80 nM)
1 | O=C(O)CN1C(=O)/C(=C2\SC(=S)NC2=O)c2ccccc21 [BES062021, 2-[(3Z)-2-oxo-3-(4-oxo-2-thioxo-thiazolidin-5-ylidene)indolin-1-yl]acetic acid] | 23 ± 14 | 16 ± 9 | 26 ± 19 | 17 ± 8 | – | – | –
2 | CCN(CC)S(=O)(=O)c1ccc2c3c(cccc13)C(=O)N2 [BES143551, N,N-diethyl-2-oxo-1,2-dihydrobenzo[cd]indole-6-sulfonamide] | 36 ± 8 | 6 ± 2 | 12 ± 7 | 2 ± 1 | – | – | –
3 | Cc1c(CCC(=O)O)c(=O)n2c([nH]c3ccccc32)c1C#N [BES241415, 3-(4-cyano-3-methyl-1-oxo-5H-pyrido[1,2-a]benzimidazol-2-yl)propanoic acid] | 61 ± 27 | 83 ± 29 | – | – | – | – | –
4 | O=C1NC(=Nc2nc3cc([N+](=O)[O-])ccc3[nH]2)NC1=O [BES252034, 2-[(5-nitro-1H-benzimidazol-2-yl)imino]imidazolidine-4,5-dione] | 15 ± 3 | 8 ± 2 | 35 ± 3 | 8 ± 2 | – | – | –
5 | CN1CC[C@H](c2c(O)cc(O)c3c(=O)cc(-c4ccccc4Cl)oc23)[C@H](O)C1 [Flavopiridol, 2-(2-Chlorophenyl)-5,7-dihydroxy-8-[(3S,4R)-3-hydroxy-1-methyl-4-piperidinyl]-4H-1-benzopyran-4-one] | – | – | – | – | fully inhibited | fully inhibited | no inhibitory effects
